# Tests used:
# [1] = system: barnyardgrass; test: Test C preemergence; format: in vivo, Echinochloa crusgalli; settings: 0 to 100 scale (0 no effect, 100 complete control); for Plant response rating, Barnyardgrass: Preemergence, 500 g ai/ha, visual rating after 10 days; for Barnyardgrass plant response rating: Test C, preemergence, 125 g ai/ha
# Summary of the method: (§1)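 Test material, in non-phytotoxic solvent with surfactant, was sprayed on the soil directly after seeding (preemergence) or on young plants of 2–10 cm with one to two leaves (postemergence). Greenhouse, 10 days; 0–100 visual control scale.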
# [2] = system: blackgrass; test: Test C preemergence; format: in vivo, Alopecurus myosuroides; settings: 0 to 100 scale (0 no effect, 100 complete control); for Plant response rating, Blackgrass: Preemergence, 500 g ai/ha, visual rating after 10 days; for Blackgrass plant response rating: Test C, preemergence, 125 g ai/ha
# Summary of the method: as §1
# [3] = system: corn; test: Test C preemergence; format: in vivo, Zea mays; settings: 0 to 100 scale (0 no effect, 100 complete control); for Corn plant response rating: preemergence
# Summary of the method: as §1
# [4] = system: green foxtail; test: Test C preemergence; format: in vivo, Setaria viridis; settings: 0 to 100 scale (0 no effect, 100 complete control); for Foxtail, Green plant response rating: preemergence
# Summary of the method: as §1
# [5] = system: kochia; test: Test C preemergence; format: in vivo, Bassia scoparia; settings: 0 to 100 scale (0 no effect, 100 complete control); for Kochia plant response rating: preemergence
# Summary of the method: as §1
# [6] = system: oat, wild; test: Test C preemergence; format: in vivo, Avena fatua; settings: 0 to 100 scale (0 no effect, 100 complete control); for Oat, Wild plant response rating: preemergence
# Summary of the method: as §1
# [7] = system: pigweed, palmer; test: Test C preemergence; format: in vivo, Amaranthus palmeri; settings: 0 to 100 scale (0 no effect, 100 complete control); for Pigweed, Palmer plant response rating: preemergence
# Summary of the method: as §1
# [8] = system: ragweed; test: Test C preemergence; format: in vivo, Ambrosia artemisiifolia; settings: 0 to 100 scale (0 no effect, 100 complete control); for Ragweed plant response rating: preemergence
# Summary of the method: as §1
# [9] = system: ryegrass, Italian; test: Test C preemergence; format: in vivo, Lolium multiflorum; settings: 0 to 100 scale (0 no effect, 100 complete control); for Ryegrass, Italian plant response rating: preemergence
# Summary of the method: as §1
# [10] = system: soybean; test: Test C preemergence; format: in vivo, Glycine max; settings: 0 to 100 scale (0 no effect, 100 complete control); for Soybean plant response rating: preemergence
# Summary of the method: as §1
# [11] = system: wheat; test: Test C preemergence; format: in vivo, Triticum aestivum; settings: 0 to 100 scale (0 no effect, 100 complete control); for Wheat plant response rating: preemergence
# Summary of the method: as §1
# [12] = system: barnyardgrass; test: Test C postemergence; format: in vivo, Echinochloa crusgalli; settings: 10 days
# Summary of the method: as §1
# [13] = system: blackgrass; test: Test C postemergence; format: in vivo, Alopecurus myosuroides; settings: 10 days
# Summary of the method: as §1
# [14] = system: corn; test: Test C postemergence; format: in vivo, Zea mays; settings: 10 days
# Summary of the method: as §1
# [15] = system: green foxtail; test: Test C postemergence; format: in vivo, Setaria viridis; settings: 10 days
# Summary of the method: as §1
# [16] = system: kochia; test: Test C postemergence; format: in vivo, Bassia scoparia; settings: 10 days
# Summary of the method: as §1
# [17] = system: oat, wild; test: Test C postemergence; format: in vivo, Avena fatua; settings: 10 days
# Summary of the method: as §1
# [18] = system: pigweed, palmer; test: Test C postemergence; format: in vivo, Amaranthus palmeri; settings: 10 days
# Summary of the method: as §1
# [19] = system: ragweed; test: Test C postemergence; format: in vivo, Ambrosia artemisiifolia; settings: 10 days
# Summary of the method: as §1
# [20] = system: ryegrass, Italian; test: Test C postemergence; format: in vivo, Lolium multiflorum; settings: 10 days
# Summary of the method: as §1
# [21] = system: soybean; test: Test C postemergence; format: in vivo, Glycine max; settings: 10 days
# Summary of the method: as §1
# [22] = system: wheat; test: Test C postemergence; format: in vivo, Triticum aestivum; settings: 10 days
# Summary of the method: as §1
# [23] = system: galium; test: Test C postemergence; format: in vivo, Galium aparine; settings: 10 days
# Summary of the method: as §1
# [24] = system: horseweed; test: Test C postemergence; format: in vivo, Erigeron canadensis; settings: 10 days
# Summary of the method: as §1
# [25] = system: barnyardgrass; test: Test D flooded paddy test; format: in vivo, Echinochloa crus-galli; settings: 250 g ai/ha, applied to paddy water, visual rating after 13 to 14 days, scale 0 to 100 (0 no effect, 100 complete control)
# Summary of the method: (§2)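 At the 2-leaf stage, floodwater 3 cm deep received the test compound; that depth persisted throughout. Plants scored visually 13 to 14 days on, 0 (no effect) to 100 (complete control), dash indicating no result.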
# [26] = system: ducksalad; test: Test D flooded paddy test; format: in vivo, Heteranthera limosa; settings: 250 g ai/ha, applied to paddy water, visual rating after 13 to 14 days, scale 0 to 100 (0 no effect, 100 complete control)
# Summary of the method: as §2
# [27] = system: rice; test: Test D flooded paddy test; format: in vivo, Oryza sativa; settings: 250 g ai/ha, applied to paddy water, visual rating after 13 to 14 days, scale 0 to 100 (0 no effect, 100 complete control)
# Summary of the method: as §2
# [28] = system: sedge, umbrella; test: Test D flooded paddy test; format: in vivo, Cyperus difformis; settings: 250 g ai/ha, applied to paddy water, visual rating after 13 to 14 days, scale 0 to 100 (0 no effect, 100 complete control)
# Summary of the method: as §2
# [29] = Preemergence, 500 g ai/ha, visual rating after 10 days
# [30] = 125 g ai/ha, postemergence, 0 to 100 scale, 0 no effect, 100 complete control
# [31] = Postemergence, 500 g ai/ha, visual 0 to 100 scale (0 no effect, 100 complete control)
smiles,measurement,setting,value
CCc1ncn(-c2ccc(C)c(C(=O)N3C[C@H](COC)Oc4c(Cl)cccc43)c2)n1 [Compound 265],"Plant response rating, Barnyardgrass",[1],90
same,Barnyardgrass plant response rating,[1],90
same,"Plant response rating, Blackgrass",[2],90
same,Blackgrass plant response rating,[2],70
same,"Plant response rating, Corn",[3]; [29],90
same,Corn plant response rating,"[3]; Test C, 125 g ai/ha",30
same,"Plant response rating, Foxtail, Green",[4]; [29],100
same,"Foxtail, Green plant response rating","[4]; Test C, 125 g ai/ha",100
same,"Plant response rating, Kochia",[5]; [29],90
same,Kochia plant response rating,"[5]; Test C, 125 g ai/ha",80
same,"Plant response rating, Oat, Wild",[6]; [29],90
same,"Oat, Wild plant response rating","[6]; Test C, 125 g ai/ha",60
same,"Plant response rating, Pigweed, Palmer",[7]; [29],100
same,"Pigweed, Palmer plant response rating","[7]; Test C, 125 g ai/ha",100
same,"Plant response rating, Ragweed",[8]; [29],70
same,Ragweed plant response rating,"[8]; Test C, 125 g ai/ha",50
same,"Plant response rating, Ryegrass, Italian",[9]; [29],90
same,"Ryegrass, Italian plant response rating","[9]; Test C, 125 g ai/ha",80
same,"Plant response rating, Soybean",[10]; [29],90
same,Soybean plant response rating,"[10]; Test C, 125 g ai/ha",70
same,"Plant response rating, Wheat",[11]; [29],80
same,Wheat plant response rating,"[11]; Test C, 125 g ai/ha",70
same,"Plant response rating, Barnyardgrass",[12]; [30],70
same,"Plant response rating, Barnyardgrass",[12]; [31],100
same,"Plant response rating, Blackgrass",[13]; [30],90
same,"Plant response rating, Blackgrass",[13]; [31],90
same,"Plant response rating, Corn",[14]; [30],60
same,"Plant response rating, Corn",[14]; [31],70
same,"Plant response rating, Foxtail, Green",[15]; [30],90
same,"Plant response rating, Foxtail, Green",[15]; [31],90
same,"Plant response rating, Kochia",[16]; [30],90
same,"Plant response rating, Kochia",[16]; [31],100
same,"Plant response rating, Oat, Wild",[17]; [30],30
same,"Plant response rating, Oat, Wild",[17]; [31],80
same,"Plant response rating, Pigweed, Palmer",[18]; [30],70
same,"Plant response rating, Pigweed, Palmer",[18]; [31],100
same,"Plant response rating, Ragweed",[19]; [30],80
same,"Plant response rating, Ragweed",[19]; [31],90
same,"Plant response rating, Ryegrass, Italian",[20]; [30],80
same,"Plant response rating, Ryegrass, Italian",[20]; [31],90
same,"Plant response rating, Soybean",[21]; [30],100
same,"Plant response rating, Soybean",[21]; [31],100
same,"Plant response rating, Wheat",[22]; [30],40
same,"Plant response rating, Wheat",[22]; [31],70
same,"Plant response rating, Galium",[23]; [30],100
same,"Plant response rating, Galium",[23]; [31],100
same,"Plant response rating, Horseweed",[24]; [30],40
same,"Plant response rating, Horseweed",[24]; [31],60
same,"Plant response rating, Barnyardgrass (Flood)",[25],30
same,"Plant response rating, Ducksalad (Flood)",[26],75
same,"Plant response rating, Rice (Flood)",[27],25
same,"Plant response rating, Sedge, Umbrella (Flood)",[28],90
COC[C@H]1CN(C(=O)c2cc(-n3cnc(C4CC4)n3)ccc2C)c2cccc(Cl)c2O1 [Compound 266],"Plant response rating, Barnyardgrass",[1],80
same,Barnyardgrass plant response rating,[1],50
same,"Plant response rating, Blackgrass",[2],60
same,Blackgrass plant response rating,[2],30
same,Corn plant response rating,[3]; 500 g ai/ha,40
same,Corn plant response rating,"[3]; Test C, 125 g ai/ha",20
same,"Foxtail, Green plant response rating",[4]; 500 g ai/ha,100
same,"Foxtail, Green plant response rating","[4]; Test C, 125 g ai/ha",100
same,Kochia plant response rating,[5]; 500 g ai/ha,90
same,Kochia plant response rating,"[5]; Test C, 125 g ai/ha",90
same,"Oat, Wild plant response rating",[6]; 500 g ai/ha,90
same,"Oat, Wild plant response rating","[6]; Test C, 125 g ai/ha",40
same,"Pigweed, Palmer plant response rating",[7]; 500 g ai/ha,100
same,"Pigweed, Palmer plant response rating","[7]; Test C, 125 g ai/ha",100
same,Ragweed plant response rating,[8]; 500 g ai/ha,30
same,Ragweed plant response rating,"[8]; Test C, 125 g ai/ha",0
same,"Ryegrass, Italian plant response rating",[9]; 500 g ai/ha,90
same,"Ryegrass, Italian plant response rating","[9]; Test C, 125 g ai/ha",80
same,Soybean plant response rating,[10]; 500 g ai/ha,100
same,Soybean plant response rating,"[10]; Test C, 125 g ai/ha",80
same,Wheat plant response rating,[11]; 500 g ai/ha,70
same,Wheat plant response rating,"[11]; Test C, 125 g ai/ha",30
same,"Plant response rating, Barnyardgrass",[12]; [30],70
same,"Plant response rating, Barnyardgrass",[12]; [31],90
same,"Plant response rating, Blackgrass",[13]; [30],50
same,"Plant response rating, Blackgrass",[13]; [31],80
same,"Plant response rating, Corn",[14]; [30],70
same,"Plant response rating, Corn",[14]; [31],70
same,"Plant response rating, Foxtail, Green",[15]; [30],90
same,"Plant response rating, Foxtail, Green",[15]; [31],90
same,"Plant response rating, Kochia",[16]; [30],80
same,"Plant response rating, Oat, Wild",[17]; [30],10
same,"Plant response rating, Pigweed, Palmer",[18]; [30],90
same,"Plant response rating, Ragweed",[19]; [30],70
same,"Plant response rating, Ryegrass, Italian",[20]; [30],70
same,"Plant response rating, Soybean",[21]; [30],100
same,"Plant response rating, Wheat",[22]; [30],20
same,"Plant response rating, Galium",[23]; [30],100
same,"Plant response rating, Galium",[23]; [31],100
same,"Plant response rating, Horseweed",[24]; [30],20
same,"Plant response rating, Horseweed",[24]; [31],80
same,"Plant response rating, Barnyardgrass (Flood)",[25],0
same,"Plant response rating, Ducksalad (Flood)",[26],75
same,"Plant response rating, Rice (Flood)",[27],15
same,"Plant response rating, Sedge, Umbrella (Flood)",[28],95
